Experimental data reported in ChEMBL document CHEMBL3046611, “Anti-tubercular agents from Ammannia baccifera (Linn.)” (2013).
Values after ≈ are worked out from the molar mass of the structure shown.

What follows are compounds tested on Mycobacterium tuberculosis (assay: Antitubercular activity against Mycobacterium tuberculosis H37Rv ATCC 27294 assessed as growth inhibition after 24 hr by BACTEC-460 radiometric susceptibility assay). Settings: H37Rv ATCC 27294, 24 h.
Format: functional

Row | SMILES | MIC
1 | COc1cc(C(=O)O[C@H]2CCC(=O)c3ccccc32)cc(OC)c1OC [4-O-(3,4,5-TRIMETHOXYBENZOYL)-ALPHA-TETRALONE] | 100 µg/mL (≈ 281 µM)
2 | O=C(O[C@H]1CCC(=O)c2ccccc21)c1ccccc1 [4-O-BENZOYL-ALPHA-TETRALONE] | 100 µg/mL (≈ 376 µM)
3 | COc1cccc(C(=O)O[C@H]2CCC(=O)c3ccccc32)c1 [4-O-META-ANISOYL-ALPHA-TETRALONE] | 100 µg/mL (≈ 337 µM)
4 | CCCCCCCCCCCCCC(=O)O[C@H]1CCC(=O)c2ccccc21 [4-O-MYRICITOYL-ALPHA-TETRALONE] | 50 µg/mL (≈ 134 µM)
5 | CCCCCCCCCCCCCCCC(=O)O[C@H]1CCC(=O)c2ccccc21 [4-O-PALMITOYL-ALPHATETRALONE] | 100 µg/mL (≈ 250 µM)
6 | O=C1CC[C@H](O)c2ccccc21 [(-)-4-HYDROXY-ALPHA-TETRALONE] | 50 µg/mL (≈ 308 µM)
7 | O=C1CC[C@H](O[C@@H]2O[C@H](CO)[C@@H](O)[C@H](O)[C@H]2O)c2ccccc21 [TETRALONE-4-O-BETA-D-GLUCOPYRANOSIDE] | 100 µg/mL (≈ 308 µM)

What follows are compounds tested on Mycobacterium tuberculosis (assay: Antimycobacterial activity against Mycobacterium tuberculosis H37Rv ATCC 27294 assessed as growth inhibition by agar dilution method). Settings: not given.
Format: functional

Row | SMILES | MIC
8 | O=C1CC[C@H](O)c2ccccc21 [(-)-4-HYDROXY-ALPHA-TETRALONE] | 4 µg/mL (≈ 24.7 µM)
